Assay results taken from ChEMBL document CHEMBL1145717, “Nostopeptins A and B, Elastase Inhibitors from the Cyanobacterium Nostoc minutum” (J Nat Prod, 1997).
In brackets after ≈: the same amount, converted by molar mass. Activity calls are given as the source filed them. The rule behind the calls is not given here.

How the values were obtained:
[1] = target: T1, Papain (Carica papaya) (UniProt P00784); assay: Inhibition of papaya papain at 100 ug/ml
T1 sequence (whole entry): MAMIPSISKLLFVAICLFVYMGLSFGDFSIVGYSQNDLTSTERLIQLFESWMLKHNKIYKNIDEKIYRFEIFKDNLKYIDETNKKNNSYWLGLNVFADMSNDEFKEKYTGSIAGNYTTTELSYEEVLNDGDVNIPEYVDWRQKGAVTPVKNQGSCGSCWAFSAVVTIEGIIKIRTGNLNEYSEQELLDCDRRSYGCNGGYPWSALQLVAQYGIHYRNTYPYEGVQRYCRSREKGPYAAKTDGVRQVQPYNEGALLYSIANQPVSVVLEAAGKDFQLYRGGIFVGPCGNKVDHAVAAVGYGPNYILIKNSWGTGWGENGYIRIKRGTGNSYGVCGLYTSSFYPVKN

[2] = target: Prothrombin (Homo sapiens) (UniProt P00734); assay: Inhibition of thrombin at 100 ug/ml
[3] = Inhibition of elastase
[4] = target: Plasminogen (Homo sapiens) (UniProt P00747); assay: Inhibition of plasmin at 100 ug/ml
Plasminogen (Homo sapiens), sequence (P00747 97-580 limits assumed): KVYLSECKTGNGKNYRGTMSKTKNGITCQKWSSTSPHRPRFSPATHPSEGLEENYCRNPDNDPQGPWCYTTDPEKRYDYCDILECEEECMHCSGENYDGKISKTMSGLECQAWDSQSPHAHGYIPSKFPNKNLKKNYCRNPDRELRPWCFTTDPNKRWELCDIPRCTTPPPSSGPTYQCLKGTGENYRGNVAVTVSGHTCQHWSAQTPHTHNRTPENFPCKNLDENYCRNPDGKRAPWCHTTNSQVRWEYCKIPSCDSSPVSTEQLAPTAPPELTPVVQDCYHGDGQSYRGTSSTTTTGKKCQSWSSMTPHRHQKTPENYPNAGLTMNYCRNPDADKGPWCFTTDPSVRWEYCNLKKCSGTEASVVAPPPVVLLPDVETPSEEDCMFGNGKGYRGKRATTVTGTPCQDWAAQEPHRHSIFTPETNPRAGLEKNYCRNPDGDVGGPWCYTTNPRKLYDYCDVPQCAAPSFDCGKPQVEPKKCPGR
Plasminogen (Homo sapiens), sequence (P00747 581-810 limits assumed): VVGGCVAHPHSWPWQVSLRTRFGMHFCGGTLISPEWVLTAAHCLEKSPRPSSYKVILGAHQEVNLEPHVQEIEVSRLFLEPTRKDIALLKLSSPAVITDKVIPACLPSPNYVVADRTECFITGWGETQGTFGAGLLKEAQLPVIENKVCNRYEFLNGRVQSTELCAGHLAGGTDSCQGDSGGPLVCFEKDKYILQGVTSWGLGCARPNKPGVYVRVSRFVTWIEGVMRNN

[5] = Inhibition of chymotrypsin
[6] = Inhibition of trypsin at 100 ug/ml

Row | Activity [1] | Activity [2] | IC50 [3] [µg/mL] | Activity [4] | IC50 [5] [µg/mL] | Activity [6] | SMILES
1 | inactive | inactive | 1.3 (≈ 1.36 µM) | inactive | 1.4 (≈ 1.47 µM) | inactive | CCCC(=O)N[C@@H](CCC(N)=O)C(=O)N1CC(C)C2OC(=O)[C@H]([C@@H](C)CC)NC(=O)[C@H](Cc3ccc(O)cc3)N(C)C(=O)[C@H]([C@@H](C)CC)N3C(=O)C(CCC3O)NC(=O)[C@H](CC(C)C)NC(=O)[C@H]21 (some centres not stated) [NOSTOPEPTIN A]
2 | inactive | inactive | 11 (≈ 11.9 µM) | inactive | 1.6 (≈ 1.73 µM) | inactive | CC[C@H](C)[C@@H]1NC(=O)[C@H](Cc2ccc(O)cc2)N(C)C(=O)[C@H]([C@@H](C)CC)N2C(=O)C(CCC2O)NC(=O)[C@H](CC(C)C)NC(=O)[C@@H]2C(OC1=O)C(C)CN2C(=O)[C@H](CCC(N)=O)NC(C)=O (some centres not stated) [NOSTOPEPTIN B]
